Test results taken from patent publication US20080033053A1, “Cross-Reference To Related Applications” (priority 2004, published 2008).

Experiments:
rats = settings: cited from earlier work
[1] = test system: patients with Huntington's disease; settings: eight patients with Huntington's disease, open-label; cited from earlier work
[2] = by glomerular filtration and renal tubular secretion; cited from earlier work
[3] = test system: Chinese Hamster Ovary cells; settings: cited from earlier work
[4] = humans, cited from earlier work
[5] = test system: human peripheral blood lymphocytes; settings: in vitro; cited from earlier work
mouse bone marrow = settings: in vivo mouse bone marrow micronucleus test; cited from earlier work
[6] = Ames Test; cited from earlier work
retinas from rats = test: RNA expression profiling of retina, vehicle vs. (low dose & high dose) amantadine at steady state; format: in vivo, Sprague Dawley rats

Cl.NC12CC3CC(CC(C3)C1)C2 [amantadine, 1-amino adamantane HCl]
teratogenic dose (rats): 50 mg/kg/day
dyskinesias [1]: significant reduction of dyskinesias
excretion [2]: primarily excreted unchanged in the urine
mutagenicity [3]: non-mutagenic
half-life, range [4]: 10 to 25 h
half-life ([4]; mean ± spread): 17 ± 4 h
chromosomal damage [5]: no evidence of chromosomal damage
chromosomal damage (mouse bone marrow): no evidence of chromosomal damage
mutagenicity [6]: non-mutagenic
TRADD gene expression (retinas from rats; retinas following amantadine treatment, no fold change printed): down-regulated
up-regulation of several crystallins (retinas from rats; retinas of amantadine-treated rats): 4-21 fold
